Key:
RON (human) = RON (human) (Homo sapiens, UniProt Q04912); assay: RON (human) AlphaScreen kinase assay, Km of ATP; format: biochemical; details: AlphaScreen, Km of ATP; read-out: RON biochemical IC50
Outline: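 Detection used PT66 AlphaScreen beads added in Tris pH 7.5/NaCl/EDTA/BSA buffer, read after 1 h incubation. Vehicle-only DMSO wells served as controls.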

MET (human) = MET (human) (Homo sapiens, UniProt P08581); assay: MET (human) AlphaScreen kinase assay, Km of ATP; format: biochemical; details: AlphaScreen, Km of ATP; read-out: Met biochemical IC50
Sequence of MET (human) (P08581 25-1390): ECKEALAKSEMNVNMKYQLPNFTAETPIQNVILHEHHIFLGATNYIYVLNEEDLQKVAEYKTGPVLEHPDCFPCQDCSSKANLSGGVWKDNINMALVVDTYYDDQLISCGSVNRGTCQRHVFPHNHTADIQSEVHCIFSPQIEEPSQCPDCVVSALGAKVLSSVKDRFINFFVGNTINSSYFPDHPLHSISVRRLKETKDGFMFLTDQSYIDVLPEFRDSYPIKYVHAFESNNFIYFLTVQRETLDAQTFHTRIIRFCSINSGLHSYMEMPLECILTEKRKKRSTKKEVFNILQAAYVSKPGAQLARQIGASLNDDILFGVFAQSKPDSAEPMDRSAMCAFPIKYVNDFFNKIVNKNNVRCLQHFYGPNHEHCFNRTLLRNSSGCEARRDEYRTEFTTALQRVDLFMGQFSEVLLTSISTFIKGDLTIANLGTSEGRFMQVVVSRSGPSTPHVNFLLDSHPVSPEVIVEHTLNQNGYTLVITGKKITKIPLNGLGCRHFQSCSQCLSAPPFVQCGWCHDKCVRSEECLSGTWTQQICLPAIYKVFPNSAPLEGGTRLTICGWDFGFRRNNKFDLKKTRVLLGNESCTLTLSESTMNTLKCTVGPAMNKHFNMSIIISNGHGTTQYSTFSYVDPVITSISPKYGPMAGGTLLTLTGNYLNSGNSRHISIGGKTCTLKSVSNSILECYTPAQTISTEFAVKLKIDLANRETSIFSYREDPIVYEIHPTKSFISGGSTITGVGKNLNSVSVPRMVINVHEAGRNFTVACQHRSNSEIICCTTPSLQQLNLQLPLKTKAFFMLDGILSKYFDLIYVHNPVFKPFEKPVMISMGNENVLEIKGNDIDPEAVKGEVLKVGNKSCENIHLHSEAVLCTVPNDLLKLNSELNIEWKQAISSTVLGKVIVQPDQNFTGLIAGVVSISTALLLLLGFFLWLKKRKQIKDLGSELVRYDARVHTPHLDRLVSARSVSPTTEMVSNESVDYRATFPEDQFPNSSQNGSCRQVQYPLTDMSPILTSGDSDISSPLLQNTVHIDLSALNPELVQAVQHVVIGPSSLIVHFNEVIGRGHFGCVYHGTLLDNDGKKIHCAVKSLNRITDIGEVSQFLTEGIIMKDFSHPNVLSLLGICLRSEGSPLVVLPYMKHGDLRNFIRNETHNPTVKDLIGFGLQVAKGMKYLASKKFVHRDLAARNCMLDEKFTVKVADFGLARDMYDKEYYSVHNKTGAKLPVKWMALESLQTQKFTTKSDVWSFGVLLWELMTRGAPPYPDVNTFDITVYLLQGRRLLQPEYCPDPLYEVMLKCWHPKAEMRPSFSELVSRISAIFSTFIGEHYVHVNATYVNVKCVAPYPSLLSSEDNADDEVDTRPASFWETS
Outline: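 Human MET at lot-optimised concentration in 50 mM Tris pH 7.4 buffer with 1 mM DTT, compound at 1% DMSO final; enzyme starts the reaction, 60 min at RT.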

Sequence of RON (human) (Q04912 25-1400): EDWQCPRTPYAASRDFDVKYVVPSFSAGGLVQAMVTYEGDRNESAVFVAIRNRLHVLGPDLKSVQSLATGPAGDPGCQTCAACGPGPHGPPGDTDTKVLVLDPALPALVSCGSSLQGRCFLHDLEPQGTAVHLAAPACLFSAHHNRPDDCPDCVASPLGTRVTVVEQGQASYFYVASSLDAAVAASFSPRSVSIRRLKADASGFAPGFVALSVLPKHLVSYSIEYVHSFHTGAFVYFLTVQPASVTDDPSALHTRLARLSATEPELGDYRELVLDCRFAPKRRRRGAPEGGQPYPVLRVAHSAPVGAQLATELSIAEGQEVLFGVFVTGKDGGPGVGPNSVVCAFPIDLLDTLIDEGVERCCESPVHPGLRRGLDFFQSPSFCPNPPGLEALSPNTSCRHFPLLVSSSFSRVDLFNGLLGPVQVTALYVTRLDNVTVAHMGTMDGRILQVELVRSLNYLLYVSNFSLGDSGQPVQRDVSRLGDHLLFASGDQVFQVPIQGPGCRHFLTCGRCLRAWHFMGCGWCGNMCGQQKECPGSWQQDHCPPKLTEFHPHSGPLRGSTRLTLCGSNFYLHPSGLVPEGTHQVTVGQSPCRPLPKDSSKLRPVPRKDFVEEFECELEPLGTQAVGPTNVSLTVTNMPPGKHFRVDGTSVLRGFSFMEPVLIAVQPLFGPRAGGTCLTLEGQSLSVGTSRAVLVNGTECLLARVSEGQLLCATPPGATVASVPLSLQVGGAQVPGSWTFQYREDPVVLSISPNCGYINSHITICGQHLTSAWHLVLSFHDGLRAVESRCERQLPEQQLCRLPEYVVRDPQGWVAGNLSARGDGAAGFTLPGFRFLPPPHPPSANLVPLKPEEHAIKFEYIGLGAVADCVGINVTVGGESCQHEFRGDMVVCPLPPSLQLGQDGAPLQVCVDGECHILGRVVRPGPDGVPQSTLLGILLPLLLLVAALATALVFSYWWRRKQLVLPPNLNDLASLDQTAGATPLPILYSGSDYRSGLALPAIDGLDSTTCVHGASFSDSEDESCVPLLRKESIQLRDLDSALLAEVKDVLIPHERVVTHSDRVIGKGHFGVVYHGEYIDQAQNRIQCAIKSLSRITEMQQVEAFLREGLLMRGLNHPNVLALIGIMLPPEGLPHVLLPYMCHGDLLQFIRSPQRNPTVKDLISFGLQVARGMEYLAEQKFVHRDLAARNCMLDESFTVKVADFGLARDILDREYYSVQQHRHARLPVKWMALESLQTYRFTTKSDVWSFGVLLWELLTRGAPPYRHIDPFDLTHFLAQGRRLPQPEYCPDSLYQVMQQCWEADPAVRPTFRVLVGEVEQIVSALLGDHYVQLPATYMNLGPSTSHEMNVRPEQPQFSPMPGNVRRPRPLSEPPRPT

Structure (SMILES) | IC50 (RON (human)) | IC50 (MET (human))
C[C@@H](Oc1c(N)ncc2c(-c3ccc(N4CCN(C(N)=O)CC4)nc3)coc12)c1c(Cl)ccc(F)c1Cl [Example 319, 4-(5-{6-Amino-7-[(R)-1-(2,6-dichloro-3-fluorophenyl)ethoxy]furo[3,2-c]pyridin-3-yl}pyridin-2-yl)piperazine-1-carboxamide] | 0.5 to 5 µM | 0.5 to 5 µM
C[C@@H](Oc1c(N)ncc2c(-c3ccc(N4CCN(C(N)=O)CC4)cc3)coc12)c1c(Cl)ccc(F)c1Cl [Example 320, 4-(4-{6-Amino-7-[(R)-1-(2,6-dichloro-3-fluorophenyl)ethoxy]furo[3,2-c]pyridin-3-yl}phenyl)piperazine-1-carboxamide] | 0.5 to 5 µM | 0.5 to 5 µM
C[C@@H](Oc1c(N)ncc2c(C3=CCN(CC#N)CC3)coc12)c1c(Cl)ccc(F)c1Cl [Example 321, (4-{6-Amino-7-[(R)-1-(2,6-dichloro-3-fluorophenyl)ethoxy]furo[3,2-c]pyridin-3-yl}-3,6-dihydro-2H-pyridin-1-yl)acetonitrile] | 0.5 to 5 µM | < 0.5 µM
C[C@@H](Oc1c(N)ncc2c(C3=CCN(C4CNC4)CC3)coc12)c1c(Cl)ccc(F)c1Cl [Example 322, 3-(1-Azetidin-3-yl-1,2,3,6-tetrahydropyridin-4-yl)-7-[(R)-1-(2,6-dichloro-3-fluorophenyl)ethoxy]furo[3,2-c]pyridin-6-ylamine] | < 0.5 µM | < 0.5 µM
C[C@@H](Oc1c(N)ncc2c(C3=CCN(C4CN(S(C)(=O)=O)C4)CC3)coc12)c1c(Cl)ccc(F)c1Cl [Example 323] | 0.5 to 5 µM | 0.5 to 5 µM
C[C@@H](Oc1c(N)ncc2c(C3=CCN(C4CN(C(N)=O)C4)CC3)coc12)c1c(Cl)ccc(F)c1Cl [Example 324, 3-(4-{6-Amino-7-[(R)-1-(2,6-dichloro-3-fluorophenyl)ethoxy]furo[3,2-c]pyridin-3-yl}-3,6-dihydro-2H-pyridin-1-yl)azetidine-1-carboxamide] | < 0.5 µM | < 0.5 µM
C[C@@H](Oc1c(N)ncc2c(-c3cc(C(=O)O)cs3)coc12)c1c(Cl)ccc(F)c1Cl [Example 325, 5-{6-Amino-7-[(R)-1-(2,6-dichloro-3-fluorophenyl)ethoxy]furo[3,2-c]pyridin-3-yl}thiophene-3-carboxylic acid] | 5 to 20 µM | 5 to 20 µM
C[C@@H](Oc1c(N)ncc2c(-c3cc(C(N)=O)cs3)coc12)c1c(Cl)ccc(F)c1Cl [Example 326, 5-{6-Amino-7-[(R)-1-(2,6-dichloro-3-fluorophenyl)ethoxy]furo[3,2-c]pyridin-3-yl}thiophene-3-carboxamide] | 5 to 20 µM | 0.5 to 5 µM
CNC(=O)c1csc(-c2coc3c(O[C@H](C)c4c(Cl)ccc(F)c4Cl)c(N)ncc23)c1 [Example 327, 5-{6-Amino-7-[(R)-1-(2,6-dichloro-3-fluorophenyl)ethoxy]furo[3,2-c]pyridin-3-yl}thiophene-3-carboxylic acid methylamide] | 5 to 20 µM | 0.5 to 5 µM
C[C@@H](Oc1c(N)ncc2c(-c3cc(C(=O)N(C)C)cs3)coc12)c1c(Cl)ccc(F)c1Cl [Example 328, 5-{6-Amino-7-[(R)-1-(2,6-dichloro-3-fluorophenyl)ethoxy]furo[3,2-c]pyridin-3-yl}thiophene-3-carboxylic acid Dimethylamide] | 0.5 to 5 µM | 0.5 to 5 µM
CCNC(=O)c1csc(-c2coc3c(O[C@H](C)c4c(Cl)ccc(F)c4Cl)c(N)ncc23)c1 [Example 329, 5-{6-Amino-7-[(R)-1-(2,6-dichloro-3-fluorophenyl)ethoxy]furo[3,2-c]pyridin-3-yl}-thiophene-3-carboxylic acid Ethylamide] | 5 to 20 µM | 0.5 to 5 µM
CC(C)NC(=O)c1csc(-c2coc3c(O[C@H](C)c4c(Cl)ccc(F)c4Cl)c(N)ncc23)c1 [Example 330, 5-{6-Amino-7-[(R)-1-(2,6-dichloro-3-fluorophenyl)ethoxy]furo[3,2-c]pyridin-3-yl}thiophene-3-carboxylic acid Isopropylamide] | 5 to 20 µM | 5 to 20 µM
C[C@@H](Oc1c(N)ncc2c(-c3cc(C(=O)NC(C)(C)C)cs3)coc12)c1c(Cl)ccc(F)c1Cl [Example 331, 5-{6-Amino-7-[(R)-1-(2,6-dichloro-3-fluorophenyl)ethoxy]furo[3,2-c]pyridin-3-yl}thiophene-3-carboxylic acid tert-butylamide] | 5 to 20 µM | 0.5 to 5 µM
C[C@@H](Oc1c(N)ncc2c(-c3cc(C(=O)N4CCN(C)CC4)cs3)coc12)c1c(Cl)ccc(F)c1Cl [Example 332, (5-{6-Amino-7-[(R)-1-(2,6-dichloro-3-fluorophenyl)ethoxy]furo[3,2-c]pyridin-3-yl}thiophen-3-yl)-(4-methylpiperazin-1-yl)methanone] | 5 to 20 µM | 0.5 to 5 µM
C[C@@H](Oc1c(N)ncc2c(-c3cnn(C4CCNCC4)c3)coc12)c1ccccc1Cl [Example 335, 7-[(R)-1-(2-Chlorophenyl)ethoxy]-3-(1-piperidin-4-yl-1H-pyrazol-4-yl)-furo[3,2-c]pyridin-6-ylamine] | 0.5 to 5 µM | < 0.5 µM
C[C@@H](Oc1c(N)ncc2c(-c3cnn(C4CCNCC4)c3)coc12)c1cccc(F)c1 [Example 337, 7-[(R)-1-(3-fluorophenyl)ethoxy]-3-(1-piperidin-4-yl-1H-pyrazol-4-yl)-furo[3,2-c]pyridin-6-ylamine] | 0.5 to 5 µM | < 0.5 µM
CCC(Oc1c(N)ncc2c(-c3cnn(C4CCNCC4)c3)coc12)c1c(Cl)cccc1Cl (stereo not drawn) [Example 340, 7-[1-(2,6-Dichlorophenyl)propoxy]-3-(1-piperidin-4-yl-1H-pyrazol-4-yl)furo[3,2-c]pyridin-6-ylamine] | 0.5 to 5 µM | < 0.5 µM
C#CCC(Oc1c(N)ncc2c(-c3cnn(C4CCNCC4)c3)coc12)c1c(Cl)cccc1Cl (stereo not drawn) [Example 341, 7-[1-(2,6-Dichlorophenyl)but-3-ynyloxy]-3-(1-piperidin-4-yl-1H-pyrazol-4-yl)-furo[3,2-c]pyridin-6-ylamine] | < 0.5 µM | < 0.5 µM
Cc1ccccc1C(C)Oc1c(N)ncc2c(-c3cnn(C4CCNCC4)c3)coc12 (stereo not drawn) [Example 342, 3-(1-Piperidin-4-yl-1H-pyrazol-4-yl)-7-(1-o-tolylethoxy)furo[3,2-c]pyridin-6-ylamine] | 0.5 to 5 µM | < 0.5 µM
Cc1cccc(C(C)Oc2c(N)ncc3c(-c4cnn(C5CCNCC5)c4)coc23)c1 (stereo not drawn) [Example 343, 3-(1-Piperidin-4-yl-1H-pyrazol-4-yl)-7-(1-m-tolylethoxy)furo[3,2-c]pyridin-6-ylamine] | 0.5 to 5 µM | 0.5 to 5 µM
Cc1ccc(C(C)Oc2c(N)ncc3c(-c4cnn(C5CCNCC5)c4)coc23)cc1 (stereo not drawn) [Example 344, 3-(1-Piperidin-4-yl-1H-pyrazol-4-yl)-7-(1-p-tolylethoxy)furo[3,2-c]pyridin-6-ylamine] | 0.5 to 5 µM | 0.5 to 5 µM
COc1cccc(C(C)Oc2c(N)ncc3c(-c4cnn(C5CCNCC5)c4)coc23)c1 (stereo not drawn) [Example 345, 7-[1-(3-Methoxyphenyl)-ethoxy]-3-(1-piperidin-4-yl-1H-pyrazol-4-yl)furo[3,2-c]pyridin-6-ylamine] | 0.5 to 5 µM | 0.5 to 5 µM
CC(Oc1c(N)ncc2c(-c3cnn(C4CCNCC4)c3)coc12)c1ccccc1C(F)(F)F (stereo not drawn) [Example 346, 3-(1-Piperidin-4-yl-1H-pyrazol-4-yl)-7-[1-(2-trifluoromethyl-phenyl)ethoxy]furo[3,2-c]pyridin-6-ylamine] | 0.5 to 5 µM | 0.5 to 5 µM
CC(Oc1c(N)ncc2c(-c3cnn(C4CCNCC4)c3)coc12)c1cccc(C(F)(F)F)c1 (stereo not drawn) [Example 347, 3-(1-Piperidin-4-yl-1H-pyrazol-4-yl)-7-[1-(3-trifluoromethyl-phenyl)ethoxy]furo[3,2-c]pyridin-6-ylamine] | 0.5 to 5 µM | < 0.5 µM
CC(Oc1c(N)ncc2c(-c3cnn(C4CCNCC4)c3)coc12)c1ccc(C(F)(F)F)cc1 (stereo not drawn) [Example 348, 3-(1-Piperidin-4-yl-1H-pyrazol-4-yl)-7-[1-(4-trifluoromethyl-phenyl)ethoxy]furo[3,2-c]pyridin-6-ylamine] | 0.5 to 5 µM | < 0.5 µM
CC(Oc1c(N)ncc2c(-c3cnn(C4CCNCC4)c3)coc12)c1cccc(OC(F)(F)F)c1 (stereo not drawn) [Example 352, 3-(1-Piperidin-4-yl-1H-pyrazol-4-yl)-7-[1-(3-trifluoromethoxy-phenyl)ethoxy]furo[3,2-c]pyridin-6-ylamine] | 0.5 to 5 µM | 0.5 to 5 µM
CC(Oc1c(N)ncc2c(-c3cnn(C4CCNCC4)c3)coc12)c1ccccc1OC(F)(F)F (stereo not drawn) [Example 354, 3-(1-Piperidin-4-yl-1H-pyrazol-4-yl)-7-[1-(2-trifluoromethoxy-phenyl)ethoxy]furo[3,2-c]pyridin-6-ylamine] | 0.5 to 5 µM | 0.5 to 5 µM
CC(Oc1c(N)ncc2c(-c3cnn(C4CCNCC4)c3)coc12)c1ccc(OC(F)(F)F)cc1 (stereo not drawn) [Example 355, 3-(1-Piperidin-4-yl-1H-pyrazol-4-yl)-7-[1-(4-trifluoromethoxy-phenyl)ethoxy]furo[3,2-c]pyridin-6-ylamine] | 0.5 to 5 µM | 0.5 to 5 µM
Nc1ncc2c(-c3cnn(C4CCNCC4)c3)coc2c1OC/C=C/c1c(Cl)ccc(F)c1Cl [Example 356, 7-[(E)-3-(2,6-Dichloro-3-fluorophenyl)allyloxy]-3-(1-piperidin-4-yl-1H-pyrazol-4-yl)furo[3,2-c]pyridin-6-ylamine] | < 0.5 µM | < 0.5 µM
COc1cccc(Cl)c1C(C)Oc1c(N)ncc2c(-c3cnn(C4CCNCC4)c3)coc12 (stereo not drawn) [Example 359, 7-[1-(2-Chloro-6-methoxyphenyl)ethoxy]-3-(1-piperidin-4-yl-1H-pyrazol-4-yl)furo[3,2-c]pyridin-6-ylamine] | < 0.5 µM | < 0.5 µM

Source: patent US8022206B2 (OSI Pharmaceuticals, LLC, priority 2008, dated 2011)
